According to paper PMC7400437, “Synthesis and Evaluation of the Antibacterial Activities of 13-Substituted Berberine Derivatives” (Antibiotics, 2020):
Like-named read-outs stand apart in the source and are kept apart here.

Columns and labels:
M. smegmatis = experiment: microbe, parasite or virus in culture; assay type: cell-based, Mycobacterium smegmatis (mc2155, ATCC 700084); details: Mycolicibacterium smegmatis, 72 h, read-out: Minimal Inhibitory Concentration (MIC) M. smegmatis
K. pneumonia = experiment: MIC, antimicrobial activity assay; assay type: cell-based, Klebsiella pneumoniae (DSMZ 26371); details: Klebsiella pneumoniae; Table 4, Gram-negative
[1] = tested on: P. aeruginosa (Quinolone-resistant); experiment: MIC, antimicrobial activity assay; assay type: cell-based; details: Pseudomonas aeruginosa, read-out: MIC P. aeruginosa (Quinolone-resistant)
V. alginolyticus = experiment: MIC, antimicrobial activity assay; assay type: cell-based, Vibrio alginolyticus (DSM 2171); details: Vibrio alginolyticus; Table 4, Gram-negative
A. gandavensis = experiment: MIC, antimicrobial activity assay; assay type: cell-based, Arthrobacter gandavensis (DSM 2447); details: Arthrobacter gandavensis; Table 4, Gram-positive
C. albicans = experiment: MIC, antifungal activity assay; assay type: cell-based, Candida albicans (DSM 10697); details: Candida albicans; Table 1 first screening; 35 °C, 24 h; read-out: Minimal Inhibitory Concentration (MIC) C. albicans
L. lactis = experiment: MIC, antimicrobial activity assay; assay type: cell-based, Lactococcus lactis (DSM 20481); details: Lactococcus lactis; Table 4, Gram-positive
S. pyogenes = experiment: MIC, antimicrobial activity assay; assay type: cell-based, Streptococcus pyogenes (DSM 20565); details: Streptococcus pyogenes; Table 4, Gram-positive; anaerobic
C. difficile = experiment: MIC, antimicrobial activity assay; assay type: cell-based, Clostridium difficile (DSM 1296); details: Clostridioides difficile; Table 4, Gram-positive; anaerobic
S. enterica = experiment: MIC, antimicrobial activity assay; assay type: cell-based, Salmonella enterica (CIP 80.39); details: Salmonella enterica; Table 4, Gram-negative
H. pylori = experiment: MIC, antimicrobial activity assay; assay type: cell-based, Helicobacter pylori (ATCC 43504); details: Helicobacter pylori; Table 4, Gram-negative; microaerobic
A. baumannii = experiment: MIC, antimicrobial activity assay; assay type: cell-based, Acinetobacter baumannii (CIP 110431); details: Acinetobacter baumannii; Table 4, Gram-negative
C. perfringens = experiment: microbe, parasite or virus in culture; assay type: cell-based, Clostridium perfringens (ATCC 13124); details: Clostridium perfringens, read-out: MIC C. perfringens
E. coli = experiment: MIC, antimicrobial activity assay; assay type: cell-based, Escherichia coli (ATCC 8739); details: Escherichia coli
V. diabolicus = experiment: MIC, antimicrobial activity assay; assay type: cell-based; details: Vibrio diabolicus; Table 4, Gram-negative
[2] = tested on: E. faecalis (Vancomycin-resistant); experiment: MIC, antimicrobial activity assay; assay type: cell-based, vancomycin-resistant Enterococcus faecalis (DSMZ 13591); details: Enterococcus faecalis, read-out: MIC E. faecalis (Vancomycin-resistant)
[3] = tested on: HepG2 (human liver cells); experiment: Cytotoxic assay on human cells (resazurin); assay type: cell-based; details: HepG2, 48 h, read-out: Inhibitory Concentration 50 (IC50) on cell viability, HEPG2
Protocol: (§1) The toxicity of berberine and berberine’s derivatives on human cells was evaluated using resazurin assay as previously described. Human cells used were BEAS (ATCC CRL-9609), Caco2 (ATCC HTB-37) and HepG2 (ATCC HB-8065) corresponding respectively to human airway epithelial cells, intestinal epithelial cells and liver cells. Cells were cultured in Dulbecco’s modified essential medium (DMEM) supplemented with 10% fetal bovine serum (FBS), 1% L-glutamine and 1% antibiotics (Thermo Fisher Scientific, Illkirch-Graffenstaden, France). Cells were routinely grown on 25 cm^2 flasks and maintained in a 5% CO2 incubator at 37 °C. For toxicity assay, cells were detached using trypsin–EDTA solution (Thermo Fisher Scientific), counted using Mallasez counting chamber and seeded into 96-well cell culture plates (Greiner bio-One, Dominique Dutscher, Brumath, France) at approximately 10,000 cells per well. The cells were left to grow for 48–72 h at 37 °C in a 5% CO2 incubator until they reached confluence. Media from wells was then aspirated and cells were treated with 100 µL of culture media containing increasing concentrations of berberine or berberine’s derivatives obtained by serial dilution (from 0 to 50 µM, 1:2 dilution), DMSO (0.5% DMSO final concentration) was used as negative control. After 48 h incubation at 37 °C in a 5% CO2 incubator, cell viability was evaluated using resazurin based in vitro toxicity assay kit (Sigma-Aldrich) following manufacturer’s instructions. Briefly, cell wells were emptied, and cells were treated with 100 µL of resazurin diluted 1:10 in sterile PBS containing calcium and magnesium (PBS^++, pH 7.4). After 4 h incubation at 37 °C, fluorescence intensity (excitation wavelength of 530 nm/emission wavelength of 590 nm) was measured using Synergy Mx microplate reader (Biotek). The fluorescence values were normalized by the controls (DMSO treated cells) and expressed as percent viability. The IC50 values of berberine and berberine’s derivatives on cell viability (i.e., the concentration of derivative causing a reduction of 50% of the cell viability) were calculated using GraphPad® Prism 7 software (San Diego, CA, USA). t-Test and two ways ANOVA analyses were used to address the significant differences between mean values with significance set at p < 0.05.

[4] = tested on: BEAS (human airway epithelial cells); experiment: Cytotoxic assay on human cells (resazurin); assay type: cell-based; details: Epithelial cell, 48 h, means +/−SD, read-out: Inhibitory Concentration 50 (IC50) on cell viability, BEAS
Protocol: as §1

[5] = tested on: Caco2 (human intestinal epithelial cells); experiment: Cytotoxic assay on human cells (resazurin); assay type: cell-based; details: for IC50: Homo sapiens, Caco-2, 48 h, read-out: Inhibitory Concentration 50 (IC50) on cell viability, Caco2; for therapeutic index Caco2: IC50 on Caco2 divided by MIC on S. aureus
Protocol: as §1

P. aeruginosa = experiment: MIC, antimicrobial activity assay; assay type: cell-based, Pseudomonas aeruginosa (ATCC 9027); details: Pseudomonas aeruginosa
S. flexneri = experiment: MIC, antimicrobial activity assay; assay type: cell-based, Shigella flexneri (ATCC 12022); details: Shigella flexneri; Table 4, Gram-negative
B. cereus = experiment: MIC, antimicrobial activity assay; assay type: cell-based; details: Bacillus cereus; Table 4, Gram-positive
B. subtilis = experiment: MIC, antimicrobial activity assay; assay type: cell-based, Bacillus subtilis (ATCC 6633); details: Bacillus subtilis
[6] = tested on: B. subtilis (Nisin-resistant); experiment: MIC, antimicrobial activity assay; assay type: cell-based, nisin-resistant B. subtilis (DSMZ 347); details: Bacillus subtilis, read-out: MIC B. subtilis (Nisin-resistant)
C. rodentium = experiment: MIC, antimicrobial activity assay; assay type: cell-based, Citrobacter rodentium (ATCC 51116); details: Citrobacter rodentium; Table 4, Gram-negative
[7] = tested on: S.aureus (Methicillin-resistant); experiment: MIC, antimicrobial activity assay; assay type: cell-based; details: Staphylococcus aureus, read-out: MIC S.aureus (Methicillin-resistant)
S. aureus = experiment: MIC, antimicrobial activity assay; assay type: cell-based, Staphylococcus aureus (ATCC 6538P); details: Staphylococcus aureus
C. farmer = experiment: MIC, antimicrobial activity assay; assay type: cell-based, Citrobacter farmeri (ATCC 51633); details: Citrobacter farmeri; Table 4, Gram-negative
[8] = tested on: selected relevant microorganisms; experiment: Antimicrobial activity, overall statement (active/inactive); assay type: cell-based
[9] = Table 1 first screening, read-out: Minimal Inhibitory Concentration (MIC) E. coli
[10] = Table 4, Gram-negative, read-out: MIC E. coli
[11] = Table 1 first screening, read-out: Minimal Inhibitory Concentration (MIC) P. aeruginosa
[12] = Table 4, Gram-negative, read-out: MIC P. aeruginosa
[13] = Table 1 first screening, read-out: Minimal Inhibitory Concentration (MIC) B. subtilis
[14] = Table 4, Gram-positive, read-out: MIC B. subtilis
[15] = Table 1 first screening, read-out: Minimal Inhibitory Concentration (MIC) S. aureus
[16] = Table 4, Gram-positive, read-out: MIC S. aureus

SMILES	MIC (M. smegmatis) [µM]	MIC (K. pneumonia) [µM]	MIC [1] [µM]	MIC (V. alginolyticus) [µM]	MIC (A. gandavensis) [µM]	MIC (C. albicans) [µM]	MIC (L. lactis) [µM]	MIC (S. pyogenes) [µM]	MIC (C. difficile) [µM]	MIC (S. enterica) [µM]	MIC (H. pylori) [µM]	MIC (A. baumannii) [µM]	MIC (C. perfringens) [µM]	MIC (E. coli; [9]) [µM]	IC50 [3] [µM]	IC50 [4] [µM]	IC50 [5] [µM]	MIC (P. aeruginosa; [11]) [µM]	MIC (B. subtilis; [13]) [µM]	MIC (S. aureus; [15]) [µM]	other results
COc1ccc2c(Cc3ccc(/C=C/C(=O)NCCc4ccc(S(N)(=O)=O)cc4)cc3)c3[n+](cc2c1OC)CCc1cc2c(cc1-3)OCO2 [Compound 23, (2E)-3-{4-[(Berberin-13-yl)methyl]phenyl}-N-[2-(4-sulfamoylphenyl)ethyl]prop-2-enamide]	25	> 100	> 100	6.25	50	100	6.25	6.25	50	> 100	6.25	> 100	50	> 100	> 50	> 50	> 50	> 100	25	6.25	MIC (E. coli; [10]): > 100 µM; MIC (V. diabolicus): > 100 µM; MIC [2]: 100 µM; therapeutic index Caco2 [5]: 12.40; MIC (P. aeruginosa; [12]): > 100 µM; MIC (S. flexneri): > 100 µM; MIC (B. cereus): 12.5 µM; MIC (B. subtilis; [14]): 25 µM; MIC [6]: 25 µM; MIC (C. rodentium): > 100 µM; MIC [7]: 12.5 µM; MIC (S. aureus; [16]): 6.25 µM; MIC (C. farmer): > 100 µM
COc1ccc2c(=O)cc(-c3ccc(Cc4c5[n+](cc6c(OC)c(OC)ccc46)CCc4cc6c(cc4-5)OCO6)cc3)oc2c1 [Compound 26, 2-{4-[(Berberin-13-yl)methyl]phenyl}-7-methoxy-4H-chromen-4-one]	50	> 100	> 100	50	12.5	100	6.25 to 12.5	25	> 100	> 100	50	> 100	> 100	> 100	> 50	> 50	> 50	> 100	50	12.5	MIC (E. coli; [10]): > 100 µM; MIC (V. diabolicus): > 100 µM; MIC [2]: > 100 µM; therapeutic index Caco2 [5]: 20.24; MIC (P. aeruginosa; [12]): > 100 µM; MIC (S. flexneri): > 100 µM; MIC (B. cereus): 50 µM; MIC (B. subtilis; [14]): 50 µM; MIC [6]: 50 µM; MIC (C. rodentium): > 100 µM; MIC [7]: 25 µM; MIC (S. aureus; [16]): 12.5 µM; MIC (C. farmer): > 100 µM
COc1ccc2cc3[n+](cc2c1OC)CCc1cc2c(cc1-3)OCO2 [Berberine]	100	–	–	–	–	100	–	–	–	–	–	–	–	> 100	> 50	40.5 ± 5.4	21.6 ± 2.7	> 100	> 100	> 100	antimicrobial activity (active/inactive) [8]: low to no antimicrobial activity
COc1ccc2c(Cc3ccc(CI)cc3)c3[n+](cc2c1OC)CCc1cc2c(cc1-3)OCO2 [Compound 8, 13-(4-Iodomethylbenzyl)Berberine]	25	> 100	> 100	6.25	3.12	50	3.12 to 6.25	12.5	100	> 100	6.25	> 100	100	> 100	> 50	23.4 ± 4.5	> 50	> 100	6.25	6.25	MIC (E. coli; [10]): > 100 µM; MIC (V. diabolicus): > 100 µM; MIC [2]: 50 µM; therapeutic index Caco2 [5]: 11.18; MIC (P. aeruginosa; [12]): > 100 µM; MIC (S. flexneri): 50 µM; MIC (B. cereus): 12.5 µM; MIC (B. subtilis; [14]): 6.25 µM; MIC [6]: 12.5 µM; MIC (C. rodentium): > 100 µM; MIC [7]: 12.5 µM; MIC (S. aureus; [16]): 6.25 µM; MIC (C. farmer): > 100 µM
COc1ccc(Cc2c3[n+](cc4c(OC)c(OC)ccc24)CCc2cc4c(cc2-3)OCO4)c(OC)c1OC [Compound 14, 13[(2,3,4-Trimethoxyphenyl)methyl]Berberine]	25	–	–	–	–	> 100	–	–	–	–	–	–	–	> 100	> 50	> 50	> 50	> 100	50	25	–
COc1ccc2c(CC(=O)c3ccc(OC(=O)c4ccccc4)cc3OC(=O)c3ccccc3)c3[n+](cc2c1OC)CCc1cc2c(cc1-3)OCO2 [Compound 17, 4-[2-(Berberin-13-yl)acetyl]-3-(benzoyloxy)phenyl Benzoate]	100	> 100	> 100	1.5 to 3.12	12.5	25	3.12 to 6.25	25	100	> 100	6.25 to 12.5	> 100	50	> 100	> 50	42.4 ± 9.8	> 50	> 100	12.5	6.25 to 12.5	MIC (E. coli; [10]): > 100 µM; MIC (V. diabolicus): > 100 µM; MIC [2]: 25 µM; therapeutic index Caco2 [5]: 8.54; MIC (P. aeruginosa; [12]): > 100 µM; MIC (S. flexneri): > 100 µM; MIC (B. cereus): 25 µM; MIC (B. subtilis; [14]): 12.5 µM; MIC [6]: 12.5 to 25 µM; MIC (C. rodentium): > 100 µM; MIC [7]: 25 µM; MIC (S. aureus; [16]): 6.25 µM; MIC (C. farmer): > 100 µM
